Measured values taken from patent publication US5366980A, “Use of dextromethorphan and an oxidase inhibitor to treat dermatitis” (priority 1993, dated 1994).
“And” between values parts separate entries of the source, which are not always exact repeats. Identical values can stand only once. “Also recorded” adds a separate entry of the source. Counter-ions that a name gives are not always drawn.

Tests used:
[1] = test system: debrisoquin hydroxylase (sparteine monooxygenase); conditions: Inaba et al 1985, cited from earlier work
[2] = test system: neuronal calcium channels; conditions: reportedly; Carpenter et al 1988; cited from earlier work
[3] = test system: N-methyl-D-aspartate (NMDA) receptors; conditions: reportedly; cited from earlier work
sigma receptors = conditions: reportedly; cited from earlier work
debrisoquin hydroxylase [4] = assay: Urinary DM/DR ratio with other antioxidants in specific patients (Example 5)
Source text: The second method involves sampling body fluids to compare the concentrations of DM and its primary metabolite, dextrorphan (DR). Although blood concentrations can be directly evaluated by drawing blood samples if desired, an easier and painless approach is to analyze urine samples. Blood or urine samples can be processed using methods such as high performance liquid chromatography (HPLC), as described in Example 5. […] The height of each peak, or the area under each peak, will indicate the quantity of each compound in the blood or urine sample. The heights of the DM and DR peaks are then divided, to determine the DM/DR ratio. The ratio which occurs after administration of a candidate antioxidant drug is compared to the DM/DR ratio in the same patient under control conditions (i.e., before administration of any antioxidant).
Preliminary Analysis of Other Antioxidants
To further evaluate that possibility, the Applicant arranged for chemical analyses of urine samples, using HPLC, in the labs of an independent investigator.

ALS patients = conditions: DM up to about 300 mg/day or higher; quinidine in prolonged QT interval; cited from earlier work
liver cell preparations = conditions: Broly et al 1989; cited from earlier work
debrisoquin hydroxylase [5] = assay: Urinary DM/DR ratio after oral dextromethorphan without and with quinidine (Example 1); format: in vivo, human; conditions: 150 mg quinidine + 60 mg DM
Method: Since the research that led to this invention was done by a neurologist who was initially interested in finding out whether DM might be able to retard the progress of ALS, the initial studies were done on patients suffering from ALS, most of whom are adults more than 50 years old.
Six patients suffering from ALS were administered orally a single 60 mg dextromethorphan dose. Several hours later, a urine sample was collected, and the urine concentrations of dextromethorphan (DM) and dextrorphan (DR) were measured as described below to determine a DM/DR ratio. […] In a different week, 60 mg of DM and 150 mg of quinidine were orally administered to the same patients, and urinary DM and DR levels and DM/DR ratios were determined again.
DM and DR urinary levels without quinidine were determined by adding […] of thebaine as an internal standard to 1 mL of urine. To this was added 2000 units of beta-glucuronidase in 1 mL of acetate buffer (0.1M, pH 5.0). The mixture was incubated for 18 hours at 37° C. and then extracted by adding 1 mL of phosphate buffer (pH 12, 0.10M) and 7 mL of n-butanol/hexane (10:90 v/v). After mixing and centrifugation, the organic layer was transferred to a clean tube and acidified with 400 uL of 0.01 N HCL. 20 microliters (uL) of aqueous phase was injected into a high performance liquid chromatography (HPLC) system. The HPLC used a phenyl column equilibrated with a mobile phase of acetonitrile:water (51:49, v/v) containing 10 mM KHPO4, 10 mM hexane sulfonic acid, pH 4.0 (flow rate 1.2 mL/min). Detection of thebaine, dextromethorphan and dextrorphan was achieved by fluorescence (Kratos FS-980 Fluorometer) with an excitation wavelength of 228 nm and no emission cutoff filter.
A gas chromatograph/mass spectroscopy (gc/ms) assay was employed for determining dextromethorphan and dextrorphan levels in the presence of quinidine. Briefly, 0.5 ml urine samples were spiked with 500 nanograms (ng) of dimethacrine. The urine pH was adjusted to 5.0 with 0.1M acetate buffer (usually about 1.0 ml), and beta-glucuronidase was added (2000 units/ml urine). […]

[6] = Plasma concentration of DM 10-12 hours after oral dosing, without and with quinidine (Examples 2 and 3); format: in vivo, human; conditions: effect of quinidine on plasma DM, words
Method: Plasma Concentrations of DM
Five patients were orally administered 120 mg of DM, with no co-administration of quinidine. Between 10 and 12 hours later, blood was sampled, blood plasma was isolated by centrifugation, and the plasma was analyzed to determine the DM concentration using the thebaine/HPLC method.
During a different week, the same patients were orally administered 60 mg of DM (half the control dosage) and 150 mg of quinidine. Between 10 and 12 hours later, blood was sampled and the plasma was analyzed for DM using thebaine/HPLC.
Additional studies were undertaken using a range of dosages of DM to establish a dose-response curve that correlates the quantity of DM orally administered to a patient with blood plasma concentrations 10 to 12 hours later (determined as described in Example 2). All patients received 150 mg of quinidine daily. The results of those studies are shown in graphical form in FIG. 2, with mean values shown as open squares and standard deviation ranges shown by vertical bars. The ascending line through the median values is a linear approximation; a curve based on more extensive data would probably show a horizontal asymptote.

| Compound | In vitro activity in inhibiting debrisoquin hydroxylase [1] | further results |
| --- | --- | --- |
| COCCc1ccc(OCC(O)CNC(C)C)cc1 (racemic) [metaprolol] | significant in vitro activity | – |
| CC[C@H]1[C@@H]2C[C@H]3[C@@H]4N(C)c5ccccc5[C@]45C[C@@H]([C@H]2[C@H]5O)N3[C@@H]1O [ajmaline] | significant in vitro activity; also recorded: relatively potent | – |
| CN1CC[C@@]23CCCC[C@@H]2[C@@H]1Cc1ccc(O)cc13 [dextrorphan] | – | Activity at neuronal calcium channels [2]: calcium channel antagonists; Activity at NMDA receptors [3]: NMDA antagonists; Activity at sigma receptors (sigma receptors): sigma agonists |
| O=c1[nH]c2ccccc2n1CCCN1CCC(n2c(=O)[nH]c3cc(Cl)ccc32)CC1 [domperidone] | significant in vitro activity | – |
| CNCCC(Oc1ccc(C(F)(F)F)cc1)c1ccccc1 (stereo not drawn) [fluoxetine] | – | Effect on DM concentrations in the blood / debrisoquin hydroxylase oxidative activity (debrisoquin hydroxylase [4]; ALS patient taking fluoxetine, research by the Applicant): can suppress the oxidative activity of the debrisoquin hydroxylase enzyme, albeit at a potency substantially below that of quinidine; also recorded: effective in increasing DM concentrations in the blood |
| O=C(CCCN1CCC(O)(c2ccc(Cl)cc2)CC1)c1ccc(F)cc1 [haloperidol] | significant in vitro activity; also recorded: relatively potent | – |
| CC(CCc1ccccc1)NCC(O)c1ccc(O)c(C(N)=O)c1 (stereo not drawn) [labetalol] | significant in vitro activity | – |
| CN1[C@@H](CC(=O)c2ccccc2)CCC[C@H]1C[C@H](O)c1ccccc1 [lobeline] | significant in vitro activity; also recorded: relatively potent | – |
| Cc1cccc(C)c1OCC(C)N (stereo not drawn) [mexiletine] | significant in vitro activity | – |
| CNCCC=C1c2ccccc2CCc2ccccc21 [nortriptyline] | significant in vitro activity | – |
| C=CCOc1ccccc1OCC(O)CNC(C)C (stereo not drawn) [oxprenolol] | significant in vitro activity | – |
| COc1ccc(Cc2nccc3cc(OC)c(OC)cc23)cc1OC [papaverine] | significant in vitro activity | – |
| NC(=O)C1(N2CCCCC2)CCN(CCCC(=O)c2ccc(F)cc2)CC1 [pipamperone] | significant in vitro activity; also recorded: relatively potent | – |
| CC(C)NCC(O)COc1cccc2ccccc12 (stereo not drawn) [propranolol] | significant in vitro activity | – |
| C=C[C@H]1C[N@@]2CC[C@H]1C[C@@H]2[C@@H](O)c1ccnc2ccc(OC)cc12 [quinidine] | most powerful of these inhibitors; also recorded: most potent inhibitor of the sparteine monooxygenase enzyme; also recorded: potent inhibitor of the debrisoquin hydroxylase enzyme | Adverse effects (general knowledge) (ALS patients): cardiac arrest (which can be fatal); Ki ([1]; in vitro, read-out: Ki (Michaelis-Menton inhibition)): 60 nM; DM oxidation / metabolism in liver cell preparations (liver cell preparations): suppresses DM oxidation in liver cell preparations; Increase of DM/DR ratio, all test subjects (debrisoquin hydroxylase [5]; all test subjects): at least 2 orders of magnitude; Increase of DM/DR ratio, usually (debrisoquin hydroxylase [5]; usual case): more than 3 orders of magnitude; DM plasma level, with or without quinidine [6]: major increase in the concentration of DM in the blood plasma; also recorded: pronounced effect in increasing and stabilizing the quantity of DM circulating in the blood; also recorded: highly effective in increasing DM concentrations |
| C=C[C@H]1C[N@@]2CC[C@H]1C[C@H]2[C@H](O)c1ccnc2ccc(OC)cc12 [quinine sulfate] | – | DM/DR ratio (antioxidant) (debrisoquin hydroxylase [4]; urine, HPLC, antioxidant in brackets, preliminary, one value per patient): 0.09 and 0.05 |
| C=C[C@H]1C[N@@]2CC[C@H]1C[C@H]2[C@H](O)c1ccnc2ccc(OC)cc12 [quinine] | significant in vitro activity | – |
| CC(C)(C)NC[C@H](O)COc1nsnc1N1CCOCC1 [timolol] | significant in vitro activity | – |
| COC(=O)[C@@H]1[C@H]2C[C@H]3c4[nH]c5ccccc5c4CCN3C[C@@H]2CC[C@@H]1O [yohimbine] | significant in vitro activity; also recorded: relatively potent | – |
